Measurements published in US20060052459A1, “Antifungal medicaments comprising arylamidine derivatives” (priority 2002, published 2006).

How the values were obtained:
[1] = tested on: Aspergillus fumigatus strain IP 864.64; assay: In vitro antifungal growth inhibition on microtitre plates (optical density 590 nm), compounds alone or as mixtures (Wadley method); assay type: cell-based; conditions: second study
Description: (§1) The following fungi were used for this study: Candida albicans strains IP 48.72 (ATCC 10231) and Aspergillus fumigatus strain IP 864.64 obtained from the Collection Nationale de Cultures de Microorganismes (CNCM) of the Institut Pasteur. The strains are cultured on Yeast Extract-Peptone-Dextrose (YEPD) agar medium comprising 0.5% yeast extract, 0.5% bactopeptone, 2% glucose and 2% agar at 30° C. and in the dark.
(§2) All these compounds were prepared in a DMSO solution at a final concentration of 100 mg/ml. The stock solutions are stored at −20° C. up to the time of use.
(§3) The trials are carried out in RPMI 1640 medium with no sodium bicarbonate, but with L-glutamine buffered with 0.165 mol per litre of 3-[N-morpholino]propanesulphonic acid (MOPS), enriched (<>) or otherwise (<>) with 2% glucose. The pH of this medium is adjusted to 7.0. The medium is sterilized by filtration (0.22 μm) and stored at 4° C. up to the time of use.
(§4) All the antifungal tests are carried out on microtitre plates. The initial suspensions of spores are prepared in a sterile solution containing 0.85% NaCl, supplemented with Tween 80 at 0.01%. These initial suspensions are then diluted in the culture medium (RPMI 1640 enriched or otherwise with 2% glucose) to a final concentration of 10^4 spores per ml. The measurements of viability of each inoculum are verified by subcultures of a volume of 300 μl on YEPD agar medium.
(§5) The antifungal compounds are tested in a range of concentrations ranging from 0.026 to 100 μg of active ingredient/ml. These antifungal compounds are then diluted in RPMI 1640 medium enriched or otherwise with 2% glucose. A final DMSO concentration of 0.2% is used throughout the measurements. Each trial is carried out on a series of dilutions of antifungal compounds, in duplicate. The antifungal dilutions (0.1 ml) and the fungal inoculum (0.1 ml) are added to each of the wells of the microtitre plate. The plates are then read with a spectrophotometer (ELX 800UV Bio-Tek Instruments, Inc) at a wavelength of 590 nm. The plates are read immediately after (t=0) and after 48 hours' incubation at 30° C. and in the dark. The optical density values obtained are correlated with fungal growth between the times t=0 and t=48 hours. The optical density values are used to calculate the percentage inhibition of growth for each concentration of antifungals by comparison with the control. The values are then used to plot a dose-response curve and the EC50 value is determined for each fungus and each compound with the aid of the Grafit 5.0® software (Erithacus software Ltd).
(§6) The method which was used to measure the type of interaction existing between the antifungal compounds in the form of mixtures is the Wadley method.
(§7) In the Wadley approach, the dose-response curve for each of the compounds A and B, and for the mixture AB, is constructed. The EC50 is calculated for each compound taken individually and for the mixture. If a and b are the absolute quantities of the compounds A and B in the mixture (a=1, b=1, a+b=2 under our conditions), the expected effective concentration (EC50exp) may be calculated in the following manner: EC50exp=(a+b)/[a/EC50A)+b/(EC50B)
(§8) The Wadley approach may be used to estimate the type of interaction existing between the fungal compounds, regardless of their concentration. Its reliability is not dependent on the percentage inhibition. The type of interaction between two compounds is given by the level of interaction (LI) which corresponds to the ratio between the expected effective concentration (EC50exp) and that observed (EC50obs) of the mixture. The nature of the interaction obtained by the Wadley formula is presented in Table 1 (see U. Gisi, Synergistic interaction in fungicide mixtures, 1996. Phytopathology 86, 1273-1279) below.
(§9) The experimental conditions are the same as previously described.

[2] = tested on: Candida albicans strains IP 48.72 (ATCC 10231); assay: as above; assay type: cell-based; conditions: second study
Description: as §1, §2, §3, §4, §5, §6, §7, §8, §9

`CCN(C)C=Nc1cc(C)c(Oc2ccc(C#N)c(C(F)(F)F)c2)cc1C` [Compound I.2, N-ethyl-N-methyl-N′-[4-(4-cyano-3-trifluoromethylphenoxy)-2,5-dimethylphenyl]imidoformamide] was tested. Which EC50 ([1]; Aspergillus fumigatus, IP864.64, 48 h, strain IP 864.64, RPMI 1640 medium enriched with 2% glucose, 48 hours at 30° C., read-out: EC50) did it give?
The EC50 was 0.088 mg/L.

What about the “efficacy in vitro compared with compounds I.1 and II.2” value ([1]; enriched medium) of the same compound?
The value was “twice higher”.

And the EC50 ([2]; Candida albicans, ATCC10231, 48 h, strain IP 48.72, RPMI 1640 medium enriched with 2% glucose, 48 hours at 30° C., read-out: EC50)?
Its EC50 is 0.205 mg/L.

And the “efficacy in vitro compared with compounds I.1 and II.1” value ([2]; enriched medium)?
Its value is “better efficacy”.
